US20120252721A1 (priority 2011, published 2012)

Assays:
[1] = test system: HCV genotype 4a NS5A within the 1b-replicon; assay: Luciferase replicon assay, NS5A-intergenotypic stable cell line genotype 4a; type: cell-based; details: Hepatitis C virus, read-out: EC50 4a
Source text: The nucleotide sequences of the NS5A region of genotype 2a (GenBank Accession # AB047639), genotype 3a (GenBank Accession #D17763), and genotype 4a (GenBank Accession# DQ418788) were synthesized by an outside vendor. The NS5A region of each of these genotypes included the first 11 amino acids of the protease recognition sequence of genotype 1b, as well as the last 10 amino acids of genotype 1b. The NS5A gene cassettes were excised with site specific restriction endonucleases and ligated into a ZS11-luciferase genotype 1b backbone (backbone contains the genotype 1b NS3 protease, NS4a, NS4b, and NS5b coding regions) with similarly cut restriction enzyme sites. Thus, the newly constructed plasmid contains a genotype 2a-, 3a- or 4a-specific NS5A gene within the 1b-replicon.
These new intergenotypic plasmids were used to establish stable cell lines. RNA was generated from the NS5A intergenotypic plasmids and used in conjunction with a lipofectin reagent to transfect a cured Huh7 cell line. Transfected cells were selected for with G418. After selection has occurred the stable cell lines were propagated, tested for luciferase activity, and RT-PCR with genotype specific primers (either 1a, 2a, 3a, or 4a). Stable cell lines containing the intergenotypic replicon were then fully sequenced and analyzed for proper expression of NS3, NS5A and NS5B proteins.
Drug titration analysis was performed using the luciferase replicon assay described herein.
The HCV luciferase replicon assay measures the ability of a test compound to inhibit HCV replication in cell culture after 3 days of treatment in a human hepatoma cell line (Huh-7) bearing an HCV replicon containing a luciferase-neomycin phosphotransferase fusion gene. The inhibition of HCV replication was measured by quantification of luciferase protein expression. Briefly, Huh-7 cells containing either the HCV genotype 1a H77 strain or genotype 1b Con1 strain subgenomic luciferase replicon (H1a-luc or Zluc, respectively) were grown in DMEM containing glucose, L-glutamine and sodium pyruvate, 10% fetal bovine serum (FBS), 100 IU/mL penicillin, 100 μg/mL streptomycin, 2 mM GlutaMAX, non-essential amino acids and 0.25 (H1a-luc) or 0.5 (Zluc) mg/mL G418. GlutaMAX was obtained from Invitrogen, Corp.; all other media reagents were obtained from Mediatech, Inc. For dose-response testing, the cells were seeded in 96-well plates at 1×10^4 (H1a-luc) or 7.5×10^3 (Zluc) cells/well in a volume of 50 μL, and incubated at 37° C./5% CO2. Three hours after plating, 50 μL of ten 5-fold serial dilutions of compound were added, and cell cultures were incubated at 37° C./5% CO2 for 72 hours. In all cases, Huh-7 cells lacking the HCV replicon served as negative control. To assess luciferase expression, the media/compound was removed from the plates and ONE-glo Luciferase assay reagent (Promega) was added to each well. The assay plates were shaken for 3 minutes at room temperature and luciferase activity for each well was measured with a 1 sec read time on the Victor^3V multilabel counter using a 700 nm cut-off filter (Perkin Elmer). EC50 values were calculated from dose response curves from the resulting best-fit equations determined by Microsoft Excel and XLfit 4.1 software.

[2] = test system: HCV genotype 1b replicon, NS5B S282T; assay: Luciferase replicon transient transfection assay, genotype 1b NS5B S282T; type: cell-based, hepatitis C virus
Experimental: The luciferase replicon transient transfection assay measures the ability of a test compound to inhibit the replication of a transiently-transfected HCV luciferase-bearing wild-type or mutant replicon in cured human hepatoma cells (Huh7.5). The inhibition of HCV replication was measured by quantification of luciferase protein expression. This assay has been validated using a panel of genotype 1a and 1b replicons bearing mutations known to be associated with resistance to BMS-790052. Briefly, subconfluent Huh7.5 cells were electroporated with 10 μg of wild-type or mutant luciferase-bearing HCV replicon RNA. The cells were then seeded in 96-well opaque white plates at 3×10^4 cells/well in 150 μL/well and incubated for 4 hrs at 37° C./5% CO2. […] The plates were agitated on a rotating platform at room temperature for 3 min and read in a Victor^3V microplate reader (Perkin-Elmer) using a 700 nm cut-off filter with a 1 sec read time. EC50 values were calculated from dose response curves from the resulting best-fit equations determined by Microsoft Excel and XLfit 4.1 software.
To determine the replication capacity of each mutant relative to the wild-type parental replicon, transfected cells were plated on two plates and were not treated with compound. Luciferase activity was measured at time points of 4 hrs and 4 days after plating for each replicon. […]

Row | SMILES | EC50 [1] [pM] | EC50 ([2]; Hepatitis C virus, genotype 1b, NS5B mutation S282T (confers resistance to 2′-C-Methylnucleoside)) [pM] | Ratio ([2]; {})
1 | COC(=O)N[C@H](C(=O)N1CCC[C@H]1c1ncc(-c2ccc(-c3csc4c(-c5cnc([C@@H]6CCCN6C(=O)[C@@H](NC(=O)OC)C(C)C)[nH]5)csc34)cc2)[nH]1)C(C)C [Compound A15, [(S)-1-((S)-2-{4-[4-(6-{2-[(S)-1-((S)-2-methoxycarbonylamino-3-methyl-butyryl)-pyrrolidin-2-yl]-3H-imidazol-4-yl}-thieno[3,2-b]thiophen-3-yl)-phenyl]-1H-imidazol-2-yl}-pyrrolidine-1-carbonyl)-2-methyl-propyl]-carbamic acid methyl ester] | < 100 | – | –
2 | COC(=O)N[C@H](C(=O)N1CCC[C@H]1c1nc2cc(-c3csc4c(-c5ccc(-c6cnc([C@@H]7CCCN7C(=O)[C@H](NC(=O)OC)c7ccccc7)[nH]6)cc5)csc34)ccc2[nH]1)C(C)C [Compound A169, [(S)-1-((S)-2-{6-[6-(4-{(S)-2-[1-((R)-2-methoxycarbonylamino-2-phenyl-acetyl)-pyrrolidin-2-yl]-3H-imidazol-4-yl}-phenyl)-thieno[3,2-b]thiophen-3-yl]-1H-benzoimidazol-2-yl}-pyrrolidine-1-carbonyl)-2-methyl-propyl]-carbamic acid methyl ester] | – | 1.4 | 0.83
